Assay results reported in article PMC9933611 (2023).

Key:
[1] = tested on: Re-engineered ATP-binding aptamer, 4-nt poly-T linker (DNA, aptamer) ACCTGGGGGAGTATTTTTTGCGGAGGAAGGA; test: fluorescence melting (AF488/BHQ-1); conditions: 10 mM Mg2+; 100 mM Tris HCl, pH 6.5; 3 mM ATP, 50 nM aptamer; temperature of 50% ligand release, not a shift
[2] = tested on: Re-engineered ATP-binding aptamer, 70-nt poly-T linker (DNA, aptamer) ACCTGGGGGAGTATTTTTTTTTTTTTTTTTTTTTTTTTTTTTTTTTTTTTTTTTTTTTTTTTTTTTTTTTTTTTTTTTTTTTTTTGCGGAGGAAGGA; test: fluorescence melting (AF488/BHQ-1); conditions: 10 mM Mg2+; 100 mM Tris HCl, pH 6.5; 3 mM ATP, 50 nM aptamer; temperature of 50% ligand release, not a shift

Nc1ncnc2c1ncn2[C@@H]1O[C@H](COP(=O)(O)OP(=O)(O)OP(=O)(O)O)[C@@H](O)[C@H]1O
T50% [1]: 59.0 ± 0.5 °C | T50% [2]: 43.2 ± 0.5 °C
